Here are results for five compounds from patent US12559463B2, “Crystalline forms of a JAK2 inhibitor” (Impact Biomedicines, Inc., priority 2019, dated 2026).

Each structure is given as a SMILES string. Read-outs that look alike come from different tables or passages of the source.

The conditions of series [1]: additive used in the salt screen, cited from earlier work.
The nature of series [2]: pKa of basic sites / additives. It is filed as physicochemical. To be noted: two basic sites for salt formation. The source says:
Fifty-three counterions and stoichiometric combinations were selected. Table 1 provides a summary of the additives, pKa values, method of dosing and equivalents dosed for each additive.

As to `O=C(O)C(O)c1ccccc1` (racemic) [DL-Mandelic acid], the pKa in series [1] (first pKa value) is given as 3.4.

Turning to `CC1(C)C2CCC1(CS(=O)(=O)O)C(=O)C2` (stereo not shown) [Camphor-10-sulfonic acid], in series [1] (first pKa value), the pKa is −2.2.

`CC1(C(=O)O)CCC(C(=O)O)C1(C)C` (stereo not shown) [Camphoric acid]: the pKa was 4.7 in series [1] (first pKa value) and 5.8 in series [1] (second pKa value).

Regarding `Cc1cnc(Nc2ccc(OCCN3CCCC3)cc2)nc1Nc1cccc(S(=O)(=O)NC(C)(C)C)c1` [Compound 1, N-tert-butyl-3-[(5-methyl-2-{[4-(2-pyrrolidin-1-ylethoxy)phenyl]amino}pyrimidin-4-yl)amino]benzenesulfonamide], the pKa was 6.4 in series [2] and 9.3 in series [2] (read-out: pKa).

On to `O=C(O)[C@@H](O)c1ccccc1` [L-Mandelic acid], for which, in series [1] (first pKa value), the pKa is listed as 3.4.

The pKa is the negative logarithm of the acid dissociation constant.
